# Results reported in patent US12421317B2, “Polynucleotides encoding anti-glucagon-like peptide 1 receptor (GLP1R) antagonist antibodies” (Regeneron Pharmaceuticals, Inc., priority 2020, dated 2025).
# Marks after values point to notes of the source that are not given here.
# System: GLP1R humanized mice
# Assay: GLP1-induced hypoglycemia (Exendin-4 challenge) in GLP1R humanized mice, glucose AUC (Example 6)
# Format: in vivo
# Conditions: for Normalized glucose AUC during Exendin-4 challenge: Exendin-4 at 0-min, test article 10 mg/kg s.c., mean
# Experimental: Thirty-nine, 2.5-month-old male GLP1R humanized mice were randomly divided into one group of sixteen mice, two groups of eight mice, and one group of seven mice. On Day 0, the group of sixteen animals (Groups 1 and 2) were administered subcutaneously (s.c.) with a hIgG4 isotype control antibody (referred to as isotype control, dose of 10 mg/kg). […] The group of seven animals (Group 5) was administered s.c. (dose of 10 mg/kg) with mAb36986. […] […] At the same time point, animals in Groups 3, 4, and 5 were administered i.p. with Exendin-4 (dose of 0.01 mg/kg). For all animals, blood glucose levels were measured with a handheld glucometer immediately before and 15, 30, 60, and 120 minutes after saline or Exendin-4 administration. All animals remained in their assigned groups until the study completion on Day 80. With animals in Groups 1, 2, 4, and 5, the Exendin-4 challenge was repeated on Days 3, 7, 15, 21, 29, 65, and 80.
# The AUC value of each animal at each challenge was normalized to the mean AUC value of Group 1. Statistical analyses were performed by one-way ANOVA followed by Bonferroni post-hoc tests, comparing Groups 1, 3, 4, or 5 to Group 2, for each challenge.
substance,measurement,setting,value
"Exendin-3 (9-39) amide [Exendin-9, reference compound]",correction of Exendin-4 induced hypoglycemia,10 mg/kg s.c.,"correction of Exendin-4 induced hypoglycemia when Exendin-4 challenge was performed 30 minutes post Exendin-9 administration, but not when the challenge was performed 4.5 or 24 hours post Exendin-9 administration"
same,Normalized glucose AUC during Exendin-4 challenge,0.5 h post test article,101.3**** % of Group 1
same,Normalized glucose AUC during Exendin-4 challenge,4.5 h post test article,70.1 % of Group 1
same,Normalized glucose AUC during Exendin-4 challenge,24 h post test article,74.1 % of Group 1
